Experiment [1] has as its target T1, E. coli transketolase (TK; TKhigh / TKlow forms) (Escherichia coli, UniProt P27302).
T1 construct: gene tktA; N-terminal His6 tag, expressed in E. coli XL10-gold from pQR791; homodimer; purified sample is a mix of TKhigh (oxidised) and TKlow subunits
The experiment in a line: intrinsic fluorescence quenching (ex […] nm, em […] nm), double-Hill fit. The class given is binding. As to conditions: read-out: Kd(high)^HPA.

Experiment [2] addresses T2, E. coli transketolase (TK; TKhigh / TKlow forms) (Escherichia coli, UniProt P27302, D469T/R520Q/S385Y).
T2 construct: gene tktA; N-terminal His6 tag, expressed in E. coli XL10-gold from pQR791; homodimer; purified sample is a mix of TKhigh (oxidised) and TKlow subunits
The description is as above. The class given is binding.

SMILES strings stand for the structures. Read-outs that look alike come from different tables or passages of the source.

In general, Kd refers to a measure of binding affinity in units of concentration.

T2 sequence (P27302 whole entry S385Y/D469T/R520Q): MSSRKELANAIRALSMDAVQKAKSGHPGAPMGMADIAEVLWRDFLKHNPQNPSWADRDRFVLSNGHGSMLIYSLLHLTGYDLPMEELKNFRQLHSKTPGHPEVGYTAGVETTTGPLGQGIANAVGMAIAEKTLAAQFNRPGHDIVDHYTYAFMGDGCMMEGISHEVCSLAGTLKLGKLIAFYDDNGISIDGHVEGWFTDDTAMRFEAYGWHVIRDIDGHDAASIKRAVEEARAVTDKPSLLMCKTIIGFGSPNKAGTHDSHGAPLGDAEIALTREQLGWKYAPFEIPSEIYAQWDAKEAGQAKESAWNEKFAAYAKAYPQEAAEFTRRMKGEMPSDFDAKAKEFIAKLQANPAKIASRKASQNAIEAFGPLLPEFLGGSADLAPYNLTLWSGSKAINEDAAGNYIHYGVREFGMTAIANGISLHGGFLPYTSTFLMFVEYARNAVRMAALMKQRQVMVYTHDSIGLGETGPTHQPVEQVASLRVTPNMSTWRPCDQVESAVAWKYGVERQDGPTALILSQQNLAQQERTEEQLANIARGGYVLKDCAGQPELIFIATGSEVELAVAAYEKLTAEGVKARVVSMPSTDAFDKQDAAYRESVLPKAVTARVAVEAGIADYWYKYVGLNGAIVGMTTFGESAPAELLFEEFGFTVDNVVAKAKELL
T1 sequence (P27302 whole entry): as the sequence (P27302 whole entry S385Y/D469T/R520Q) above, with Y385S, T469D, Q520R counted along it

With `O=C(O)C(=O)CO` [HPA, β-hydroxypyruvate], the Kd came to 3.42 ± 0.45 mM in experiment [1] and 3.61 ± 0.31 mM in experiment [2] (read-out: Kd(high)^HPA).

For `Cc1ncc(C[n+]2csc(CCO[P@](=O)(O)OP(=O)(O)O)c2C)c(N)n1` [TPP, thiamine pyrophosphate], in experiment [2] (read-out: Kd(high)^TPP), the Kd is 0.0066 ± 0.00164 mM.

These data come from PMC7057962, “The Two-Species Model of transketolase explains donor substrate-binding, inhibition and heat-activation” (Scientific Reports, 2020).
